Tests used:
[1] = test system: intestinal resorption of cholesterol; test: inhibition of the intestinal resorption of cholesterol (CHORES), radioactive cholesterol test feed, faeces radioactivity; format: in vivo, normal female albino rats; settings: rats, 100 μmol/kg p.o.; faeces collected for three days; untreated control = 100%
Description: The substances to be investigated are administered to groups each comprising 6 normal female albino rats (body weight about 70 g) by means of a probang. Immediately thereafter the animals received by means of a probang a test feed containing a radioactive cholesterol. Thereafter, the faeces is collected for three days, freeze-dried and pulverized, and an aliquot is burnt in order to determine the radioactivity of the faeces. Untreated control animals excrete about 40-50% of the radioactive cholesterol taken up with the feed. The radioactive cholesterol which is not excreted is regarded as the resorbed cholesterol, the amount of resorbed cholesterol in the untreated control animals being arbitrarily fixed as 100%. Animals which have been treated with a substance inhibiting the intestinal resorption of cholesterol show a lower resorption of radioactive cholesterol than untreated control animals. The cholesterol resorption (CHORES) is expressed in percentages of the cholesterol resorption of untreated control animals.
(§1) In the following Table there are given the results obtained with representative products provided by the invention. There are given for each of the compounds listed therein the dosage administered (in μmol/kg p.o.) as well as the cholesterol resorption (CHORES) determined in percentages of the cholesterol resorption of untreated control animals. Moreover, the Table contains information concerning the acute toxicity of the compounds investigated (LD50 in mg/kg in the case of single oral administration to mice).

[2] = acute toxicity, single oral administration to mice; settings: mouse, in vivo, single oral administration (p.o.)
Excerpt: as §1

| Structure (SMILES) | CHORES (cholesterol resorption in percentages of the cholesterol resorption of untreated control animals) [1] [%] | LD50 [2] [mg/kg] |
| --- | --- | --- |
| C[C@@H]1N=C(c2ccccc2Cl)c2c(ccc(NC(=O)NC3CCC(O)CC3)c2Br)N(C)C1=O (some centres unmarked) | 34 |  |
| C[C@@H]1N=C(c2ccccc2Cl)c2c(ccc(NC(=O)N3CCCC(O)C3)c2Br)N(C)C1=O (some centres unmarked) | 44 |  |
| C[C@@H]1N=C(c2ccccc2Cl)c2c(ccc(NC(=O)NCC3COC(C)(C)O3)c2Br)N(C)C1=O (some centres unmarked) | 25 |  |
| C[C@@H]1N=C(c2ccccc2Cl)c2c(ccc(NC(=O)NC(CO)(CO)CO)c2Br)N(C)C1=O [NHC(CH2 OH)3, 1-[(S)-6-bromo-5-(o-chlorophenyl)-2,3-dihydro-1,3-dimethyl-2-oxo-1H-1,4-benzodiazepin-7-yl]-3-[2-hydroxy-1,1-bis(hydroxymethyl)ethyl]urea] | 30 | > 5000 |
| C[C@@H]1N=C(c2ccccc2Cl)c2c(ccc(NC(=O)NC(C)(CO)CO)c2Br)N(C)C1=O [NHC(CH3)(CH2 OH)2, 1-[(S)-6-bromo-5-(o-chlorophenyl)-2,3-dihydro-1,3-dimethyl-2-oxo-1H-1,4-benzodiazepin-7-yl]-3-[1,1-bis(hydroxymethyl)ethyl]urea] | 31 | > 5000 |
| C[C@@H]1N=C(c2ccccc2Cl)c2c(ccc(NC(=O)NCC(O)CO)c2Br)N(C)C1=O (stereo partly drawn) [NHCH2 CH(OH)CH2 OH, 1-[(S)-6-bromo-5-(o-chlorophenyl)-2,3-dihydro-1,3-dimethyl-2-oxo-1H-1,4-benzodiazepin-7-yl]-3-(2,3-dihydroxypropyl)urea] | 24 |  |

Reference: patent US4474777A, “Benzodiazepine derivatives and their pharmaceutical use” (Hoffmann-La Roche Inc., priority 1982, dated 1984)
